Assay results published in ChEMBL document CHEMBL4396937, “Synthesis of new triazole fused imidazo[2,1-b]thiazole hybrids with emphasis on Staphylococcus aureus virulence factors” (Bioorg Med Chem Lett, 2019).
Values after ≈ are worked out from the molar mass of the structure shown. Active and inactive are the calls of the source. The rule behind the calls is not given here.

Key:
[1] = tested on: Pseudomonas aeruginosa; assay: Antibacterial activity against Pseudomonas aeruginosa MTCC 2453 assessed as reduction in bacterial growth incubated for 24 hrs by agar well diffusion method; type: functional; conditions: MTCC 2453, 24 h
[2] = tested on: Pseudomonas aeruginosa; assay: Antibiofilm activity against Pseudomonas aeruginosa MTCC 2453 assessed as inhibition of biofilm formation by crystal violet staining-based microtitre plate assay; type: functional, organism-based
[3] = tested on: Candida albicans; assay: Antifungal activity against Candida albicans MTCC 3017 assessed as reduction in fungal growth incubated for 24 hrs by agar well diffusion method; type: functional; conditions: MTCC 3017, 24 h
[4] = tested on: Staphylococcus aureus; assay: Antibacterial activity against Staphylococcus aureus MLS-16 MTCC 2940 assessed as reduction in bacterial growth incubated for 24 hrs by agar well diffusion method; type: functional; conditions: MLS-16 MTCC 2940, 24 h
[5] = tested on: Bacillus subtilis; assay: Antibacterial activity against Bacillus subtilis MTCC 121 assessed as reduction in bacterial growth incubated for 24 hrs by agar well diffusion method; type: functional; conditions: MTCC 121, 24 h
[6] = tested on: Bacillus subtilis; assay: Antibiofilm activity against Bacillus subtilis MTCC 121 assessed as inhibition of biofilm formation by crystal violet staining-based microtitre plate assay; type: functional, organism-based
[7] = tested on: Raoultella planticola; assay: Antibiofilm activity against Klebsiella planticola MTCC 530 assessed as inhibition of biofilm formation by crystal violet staining-based microtitre plate assay; type: functional, organism-based
[8] = tested on: Micrococcus luteus; assay: Bactericidal activity against Micrococcus luteus MTCC 2470 assessed as reduction in bacterial survival incubated for 24 hrs followed by transfer of microbial suspension to agar plates and measured at 24 hrs post transfer by agar well diffusion method; type: functional; conditions: MTCC 2470, 24 h
[9] = tested on: Micrococcus luteus; assay: Antibiofilm activity against Micrococcus luteus MTCC 2470 assessed as inhibition of biofilm formation by crystal violet staining-based microtitre plate assay; type: functional, organism-based
[10] = tested on: Escherichia coli; assay: Antibiofilm activity against Escherichia coli MTCC 739 assessed as inhibition of biofilm formation by crystal violet staining-based microtitre plate assay; type: functional, organism-based
[11] = tested on: Pseudomonas aeruginosa; assay: Bactericidal activity against Pseudomonas aeruginosa MTCC 2453 assessed as reduction in bacterial survival incubated for 24 hrs followed by transfer of microbial suspension to agar plates and measured at 24 hrs post transfer by agar well diffusion method; type: functional; conditions: MTCC 2453, 24 h
[12] = tested on: Escherichia coli; assay: Antibacterial activity against Escherichia coli MTCC 739 assessed as reduction in bacterial growth incubated for 24 hrs by agar well diffusion method; type: functional; conditions: MTCC 739, 24 h
[13] = tested on: Staphylococcus aureus; assay: Bactericidal activity against Staphylococcus aureus MLS-16 MTCC 2940 assessed as reduction in bacterial survival incubated for 24 hrs followed by transfer of microbial suspension to agar plates and measured at 24 hrs post transfer by agar well diffusion method; type: functional; conditions: MLS-16 MTCC 2940, 24 h
[14] = tested on: Staphylococcus aureus; assay: Antibiofilm activity against Staphylococcus aureus MLS-16 MTCC 2940 assessed as inhibition of biofilm formation by crystal violet staining-based microtitre plate assay; type: functional, organism-based
[15] = tested on: MRC5; assay: Cytotoxicity against human MRC5 cells assessed as reduction in cell viability incubated for 48 hrs by MTT assay; type: cell-based; conditions: MRC5, 48 h
[16] = tested on: Staphylococcus aureus; assay: Antibacterial activity against Staphylococcus aureus MTCC 96 assessed as reduction in bacterial growth incubated for 24 hrs by agar well diffusion method; type: functional; conditions: MTCC 96, 24 h
[17] = tested on: Bacillus subtilis; assay: Bactericidal activity against Bacillus subtilis MTCC 121 assessed as reduction in bacterial survival incubated for 24 hrs followed by transfer of microbial suspension to agar plates and measured at 24 hrs post transfer by agar well diffusion method; type: functional; conditions: MTCC 121, 24 h
[18] = tested on: Micrococcus luteus; assay: Antibacterial activity against Micrococcus luteus MTCC 2470 assessed as reduction in bacterial growth incubated for 24 hrs by agar well diffusion method; type: functional; conditions: MTCC 2470, 24 h
[19] = tested on: Escherichia coli; assay: Bactericidal activity against Escherichia coli MTCC 739 assessed as reduction in bacterial survival incubated for 24 hrs followed by transfer of microbial suspension to agar plates and measured at 24 hrs post transfer by agar well diffusion method; type: functional; conditions: MTCC 739, 24 h
[20] = tested on: Staphylococcus aureus; assay: Antibiofilm activity against Staphylococcus aureus MTCC 96 assessed as inhibition of biofilm formation by crystal violet staining-based microtitre plate assay; type: functional, organism-based
[21] = tested on: Candida albicans; assay: Fungicidal activity against Candida albicans MTCC 3017 assessed as reduction in fungal survival incubated for 24 hrs followed by transfer of microbial suspension to agar plates and measured at 24 hrs post transfer by agar well diffusion method; type: functional; conditions: MTCC 3017, 24 h
[22] = tested on: Staphylococcus aureus; assay: Bactericidal activity against Staphylococcus aureus MTCC 96 assessed as reduction in bacterial survival incubated for 24 hrs followed by transfer of microbial suspension to agar plates and measured at 24 hrs post transfer by agar well diffusion method; type: functional; conditions: MTCC 96, 24 h
[23] = tested on: Raoultella planticola; assay: Antibacterial activity against Klebsiella planticola MTCC 530 assessed as reduction in bacterial growth incubated for 24 hrs by agar well diffusion method; type: functional; conditions: MTCC 530, 24 h
[24] = tested on: Raoultella planticola; assay: Bactericidal activity against Klebsiella planticola MTCC 530 assessed as reduction in bacterial survival incubated for 24 hrs followed by transfer of microbial suspension to agar plates and measured at 24 hrs post transfer by agar well diffusion method; type: functional; conditions: MTCC 530, 24 h
[25] = tested on: Staphylococcus aureus; assay: Antibiofilm activity against Staphylococcus aureus MTCC 96 assessed as inhibition of biofilm formation incubated for 48 hrs in presence of Escherichia coli MTCC 739 by FE-SEM analysis; type: functional, organism-based; conditions: MTCC 96, 48 h
[26] = tested on: Escherichia coli; assay: Antibiofilm activity against Escherichia coli MTCC 739 assessed as cell lysis with damaged membrane at bactericidal MBC incubated for 48 hrs by FE-SEM analysis; type: functional, organism-based
[27] = tested on: Staphylococcus aureus; assay: Antibiofilm activity against Staphylococcus aureus MTCC 96 assessed as disruption of biofilm matrix with individual cell lysis at bactericidal MBC incubated for 48 hrs in presence of Escherichia coli MTCC 739 by FE-SEM analysis; type: functional, organism-based
[28] = tested on: Staphylococcus aureus; assay: Antibiofilm activity against Staphylococcus aureus MTCC 96 assessed as disruption and cell damage at bactericidal MBC incubated for 48 hrs by FE-SEM analysis; type: functional, organism-based
[29] = tested on: Escherichia coli; assay: Antibiofilm activity against Escherichia coli MTCC 739 assessed as disruption of biofilm matrix with individual cell lysis at bactericidal MBC incubated for 48 hrs in presence of Staphylococcus aureus MTCC 96 by FE-SEM analysis; type: functional, organism-based
[30] = tested on: Escherichia coli; assay: Antibiofilm activity against Escherichia coli MTCC 739 assessed as inhibition of biofilm formation incubated for 48 hrs in presence of Staphylococcus aureus MTCC 96 by FE-SEM analysis; type: functional, organism-based; conditions: MTCC 739, 48 h

O=C(c1cn(-c2ccc(F)cc2Br)nn1)c1c(-c2ccccc2)nc2sccn12
MIC [1]: 3.9 µg/mL (≈ 8.33 µM)
IC50 [2]: 18.2 µg/mL (≈ 38.9 µM)
MIC [3]: 7.8 µg/mL (≈ 16.7 µM)
MIC [4]: 1.9 µg/mL (≈ 4.06 µM)
MIC [5]: 3.9 µg/mL (≈ 8.33 µM)
IC50 [6]: 13.5 µg/mL (≈ 28.8 µM)
IC50 [7]: 17.3 µg/mL (≈ 36.9 µM)
MBC [8]: 7.8 µg/mL (≈ 16.7 µM)
IC50 [9]: 12.3 µg/mL (≈ 26.3 µM)
IC50 [10]: 18.2 µg/mL (≈ 38.9 µM)
MBC [11]: 7.8 µg/mL (≈ 16.7 µM)
MIC [12]: 1.9 µg/mL (≈ 4.06 µM)
MBC [13]: 3.9 µg/mL (≈ 8.33 µM)
IC50 [14]: 12.8 µg/mL (≈ 27.3 µM)
IC50 [15]: 48.2 µg/mL (≈ 103 µM)
MIC [16]: 1.9 µg/mL (≈ 4.06 µM)
MBC [17]: 7.8 µg/mL (≈ 16.7 µM)
MIC [18]: 3.9 µg/mL (≈ 8.33 µM)
MBC [19]: 3.9 µg/mL (≈ 8.33 µM)
IC50 [20]: 13.5 µg/mL (≈ 28.8 µM)
MFC [21]: 15.6 µg/mL (≈ 33.3 µM)
MBC [22]: 3.9 µg/mL (≈ 8.33 µM)
MIC [23]: 3.9 µg/mL (≈ 8.33 µM)
MBC [24]: 7.8 µg/mL (≈ 16.7 µM)

O=C(c1cn(-c2ccc(Br)cc2)nn1)c1c(-c2ccccc2)nc2sccn12
MIC [1]: 3.9 µg/mL (≈ 8.66 µM)
IC50 [2]: 20.2 µg/mL (≈ 44.9 µM)
MIC [3]: 7.8 µg/mL (≈ 17.3 µM)
MIC [4]: 3.9 µg/mL (≈ 8.66 µM)
MIC [5]: 3.9 µg/mL (≈ 8.66 µM)
IC50 [6]: 16 µg/mL (≈ 35.5 µM)
IC50 [7]: 21.1 µg/mL (≈ 46.9 µM)
MBC [8]: 15.6 µg/mL (≈ 34.6 µM)
IC50 [9]: 13.9 µg/mL (≈ 30.9 µM)
IC50 [10]: 20.2 µg/mL (≈ 44.9 µM)
MBC [11]: 7.8 µg/mL (≈ 17.3 µM)
MIC [12]: 3.9 µg/mL (≈ 8.66 µM)
MBC [13]: 7.8 µg/mL (≈ 17.3 µM)
IC50 [14]: 14.4 µg/mL (≈ 32 µM)
IC50 [15]: 28.1 µg/mL (≈ 62.4 µM)
MIC [16]: 3.9 µg/mL (≈ 8.66 µM)
MBC [17]: 7.8 µg/mL (≈ 17.3 µM)
MIC [18]: 7.8 µg/mL (≈ 17.3 µM)
MBC [19]: 7.8 µg/mL (≈ 17.3 µM)
IC50 [20]: 21.8 µg/mL (≈ 48.4 µM)
MFC [21]: 15.6 µg/mL (≈ 34.6 µM)
MBC [22]: 7.8 µg/mL (≈ 17.3 µM)
MIC [23]: 3.9 µg/mL (≈ 8.66 µM)
MBC [24]: 7.8 µg/mL (≈ 17.3 µM)

O=C(c1cn(-c2ccc(Cl)cc2)nn1)c1c(-c2ccccc2)nc2sccn12
IC50 [25]: 14.3 µg/mL
Activity [26]: Active
MIC [1]: 3.9 µg/mL (≈ 9.61 µM)
Activity [27]: Active
IC50 [2]: 14.2 µg/mL (≈ 35 µM)
MIC [3]: 7.8 µg/mL (≈ 19.2 µM)
MIC [4]: 1.9 µg/mL (≈ 4.68 µM)
MIC [5]: 3.9 µg/mL (≈ 9.61 µM)
IC50 [6]: 11.4 µg/mL (≈ 28.1 µM)
IC50 [7]: 14.6 µg/mL (≈ 36 µM)
Activity [28]: Active
MBC [8]: 7.8 µg/mL (≈ 19.2 µM)
IC50 [9]: 11.2 µg/mL (≈ 27.7 µM)
IC50 [10]: 10.3 µg/mL (≈ 25.4 µM)
MBC [11]: 7.8 µg/mL (≈ 19.2 µM)
MIC [12]: 1.9 µg/mL (≈ 4.68 µM)
MBC [13]: 3.9 µg/mL (≈ 9.61 µM)
IC50 [14]: 10.6 µg/mL (≈ 26.2 µM)
IC50 [15]: 36.1 µg/mL (≈ 88.9 µM)
MIC [16]: 1.9 µg/mL (≈ 4.68 µM)
MBC [17]: 7.8 µg/mL (≈ 19.2 µM)
MIC [18]: 3.9 µg/mL (≈ 9.61 µM)
MBC [19]: 3.9 µg/mL (≈ 9.61 µM)
IC50 [20]: 9.8 µg/mL (≈ 24.1 µM)
MFC [21]: 15.6 µg/mL (≈ 38.4 µM)
Activity [29]: Active
MBC [22]: 3.9 µg/mL (≈ 9.61 µM)
MIC [23]: 3.9 µg/mL (≈ 9.61 µM)
MBC [24]: 7.8 µg/mL (≈ 19.2 µM)
IC50 [30]: 14.3 µg/mL
